Results from patent US20230159463A1, “BENZONITRIC HETEROCYCLIC COMPOUND, PREPARATION METHOD THEREFOR AND USE THEREOF” (SHANGHAI ZHONGZE THERAPEUTICS, CO. LTD., priority 2020, published 2023).
pIC50: −log10 of the molar value. Like-named read-outs stand apart in the source and are kept apart here.

How the values were obtained:
HDAC6 = target: T1, HDAC6 (Homo sapiens, UniProt Q9UBN7); experiment: HDAC6 inhibitor screening kit (Biovision), in vitro inhibitory activity; assay type: biochemical
T1 construct: purchased Biovision Company
T1 sequence (Q9UBN7 1-1215): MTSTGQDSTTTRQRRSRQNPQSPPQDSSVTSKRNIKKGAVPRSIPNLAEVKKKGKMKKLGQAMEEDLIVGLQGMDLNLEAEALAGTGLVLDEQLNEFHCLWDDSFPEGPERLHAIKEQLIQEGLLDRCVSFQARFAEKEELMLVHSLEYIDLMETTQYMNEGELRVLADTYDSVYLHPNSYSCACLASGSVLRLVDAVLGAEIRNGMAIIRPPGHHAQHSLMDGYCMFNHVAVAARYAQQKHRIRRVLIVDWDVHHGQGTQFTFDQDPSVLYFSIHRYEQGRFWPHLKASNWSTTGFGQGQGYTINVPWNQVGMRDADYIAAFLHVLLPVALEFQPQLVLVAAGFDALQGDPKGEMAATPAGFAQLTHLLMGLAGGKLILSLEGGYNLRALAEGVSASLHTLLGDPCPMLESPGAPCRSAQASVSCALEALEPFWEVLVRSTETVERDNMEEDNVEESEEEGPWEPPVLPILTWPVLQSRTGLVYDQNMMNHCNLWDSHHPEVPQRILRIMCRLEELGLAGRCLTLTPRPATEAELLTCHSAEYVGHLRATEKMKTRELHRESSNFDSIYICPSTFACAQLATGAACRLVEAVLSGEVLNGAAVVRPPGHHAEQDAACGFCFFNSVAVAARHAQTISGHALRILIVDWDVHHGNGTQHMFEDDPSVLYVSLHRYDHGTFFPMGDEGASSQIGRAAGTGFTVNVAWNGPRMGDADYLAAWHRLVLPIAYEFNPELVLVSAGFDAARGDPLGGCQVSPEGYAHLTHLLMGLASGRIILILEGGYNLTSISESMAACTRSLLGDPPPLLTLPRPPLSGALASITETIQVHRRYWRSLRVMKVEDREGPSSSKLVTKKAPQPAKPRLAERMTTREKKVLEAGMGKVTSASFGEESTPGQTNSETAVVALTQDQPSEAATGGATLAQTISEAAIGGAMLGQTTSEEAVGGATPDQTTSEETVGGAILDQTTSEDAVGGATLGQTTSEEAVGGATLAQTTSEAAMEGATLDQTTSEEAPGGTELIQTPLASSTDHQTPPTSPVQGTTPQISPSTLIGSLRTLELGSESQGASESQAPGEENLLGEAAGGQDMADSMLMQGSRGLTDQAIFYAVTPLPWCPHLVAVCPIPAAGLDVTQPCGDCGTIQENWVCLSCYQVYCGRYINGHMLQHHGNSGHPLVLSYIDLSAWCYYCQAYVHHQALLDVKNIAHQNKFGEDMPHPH
Description: (§1) The in vitro inhibitory activity of histone deacetylase of the compound was determined according to the instructions of HDAC1 and HDAC6 inhibitor screening kit (Biovision Company).

HDAC1 = target: T2, HDAC1 (Homo sapiens, UniProt Q13547); experiment: HDAC1 inhibitor screening kit (Biovision), in vitro inhibitory activity; assay type: biochemical
T2 construct: purchased Biovision Company
Description: as §1

glioma cell line U-87MG = experiment: In vitro anti-proliferative activity (CCK8), U-87MG; assay type: cell-based; settings: Homo sapiens, read-out: U-87MG (Glioma) Inh % in 10 μM
[1] = tested on: myeloma cell line RPMI 8226; experiment: In vitro anti-proliferative activity (CCK8), RPMI 8226; assay type: cell-based; settings: Homo sapiens, 48 hours, class symbol, read-out: RPMI 8226 (Myeloma) Inh % in 10 μM
Description: (§2) The specific results are shown in the table (unit: […] Test method: The tumor cells in the logarithmic growth phase with good growth status were inoculated into 96-well plates at 4×10^3 per well, and 8 duplicate wells were set up in each group. The cells were cultured in a cell incubator, after the cells adhered to the wall, […]. […] The experiment was repeated 3 times, and the average of the experimental results was taken as the final experimental result, and the inhibition rate was calculated.

[2] = tested on: human liver cancer cell line HepG2; experiment: In vitro anti-proliferative activity (CCK8), HepG2; assay type: cell-based; settings: read-out: Hep G2 (Liver cancer) Inh % in 10 μM
Description: as §2

[3] = tested on: human lung cancer cell line A549; experiment: In vitro anti-proliferative activity (CCK8), A549; assay type: cell-based; settings: read-out: A549 (Lung cancer) Inh % in 10 μM
Description: as §2

[4] = tested on: MRC-5 human normal embryo lung fibroblast; experiment: In vitro anti-proliferative activity (CCK8), MRC-5 normal cells; assay type: cell-based; settings: read-out: MRC-5 (Normal cell line) Inh % in 10 μM
[5] = tested on: mixed cells and primary neurons in rat cortex; experiment: Protective effect on HCA-induced neuronal cell damage; assay type: cell-based; settings: HCA 5 mmol/L; test concentration 0.1, 1.0 and 10.0 μM; compared with Tubastatin A at the same dose
hERG potassium channels = target: T3, hERG potassium channels (Homo sapiens, UniProt Q12809); experiment: hERG potassium channel whole-cell patch clamp; assay type: cell-based; settings: hERG-HEK293 cells, IKr current
T3 construct: expressed in transfected cells
Text: Whole-cell patch clamp technique was used to record the changes of hERG current (IKr) after different concentrations of compounds acted on HEK293 cells (hERG-HEK293 steady-state cells) expressing hERG potassium channels to study the half inhibitory concentration (IC50) of the above compounds on IKr.

[6] = Maximum tolerance dose by intragastric administration; settings: ICR, mouse, in vivo, po; mice, single intragastric administration, 14 days observation; read-out: maximum tolerated dose
Description: 40 ICR mice, half male and half […], weighing 18 to 20 g, were divided into 4 groups with 10 animals in each group. After 6 hours of fasting, the test samples in each group were taken with sterilized plastic syringe and orally gavaged at a volume of 0.3 mL/10 g. The general physical signs of animals and the death of animals were recorded at 1, 2 and 4 hours after administration. […] The dead animals were dissected to observe whether there were any visible pathological changes in the organs of the animals, and pathological examinations were carried out on suspicious tissues and organs.

[7] = tested on: myeloma cell line RPMI 8226; experiment: In vitro anti-proliferative activity (CCK8), RPMI 8226; assay type: cell-based; settings: Homo sapiens, RPMI-8226, 48 h, read-out: RPMI 8226 (Myeloma) Inh % in 10 μM
[8] = 10 μM, 48 hours, CCK8, class symbol
[9] = HepG2, 10 μM, 48 hours, CCK8, class symbol
[10] = A549, 10 μM, 48 hours, CCK8, class symbol
[11] = MRC5, 10 μM, 48 hours, CCK8, class symbol

T3 sequence (Q12809 whole entry): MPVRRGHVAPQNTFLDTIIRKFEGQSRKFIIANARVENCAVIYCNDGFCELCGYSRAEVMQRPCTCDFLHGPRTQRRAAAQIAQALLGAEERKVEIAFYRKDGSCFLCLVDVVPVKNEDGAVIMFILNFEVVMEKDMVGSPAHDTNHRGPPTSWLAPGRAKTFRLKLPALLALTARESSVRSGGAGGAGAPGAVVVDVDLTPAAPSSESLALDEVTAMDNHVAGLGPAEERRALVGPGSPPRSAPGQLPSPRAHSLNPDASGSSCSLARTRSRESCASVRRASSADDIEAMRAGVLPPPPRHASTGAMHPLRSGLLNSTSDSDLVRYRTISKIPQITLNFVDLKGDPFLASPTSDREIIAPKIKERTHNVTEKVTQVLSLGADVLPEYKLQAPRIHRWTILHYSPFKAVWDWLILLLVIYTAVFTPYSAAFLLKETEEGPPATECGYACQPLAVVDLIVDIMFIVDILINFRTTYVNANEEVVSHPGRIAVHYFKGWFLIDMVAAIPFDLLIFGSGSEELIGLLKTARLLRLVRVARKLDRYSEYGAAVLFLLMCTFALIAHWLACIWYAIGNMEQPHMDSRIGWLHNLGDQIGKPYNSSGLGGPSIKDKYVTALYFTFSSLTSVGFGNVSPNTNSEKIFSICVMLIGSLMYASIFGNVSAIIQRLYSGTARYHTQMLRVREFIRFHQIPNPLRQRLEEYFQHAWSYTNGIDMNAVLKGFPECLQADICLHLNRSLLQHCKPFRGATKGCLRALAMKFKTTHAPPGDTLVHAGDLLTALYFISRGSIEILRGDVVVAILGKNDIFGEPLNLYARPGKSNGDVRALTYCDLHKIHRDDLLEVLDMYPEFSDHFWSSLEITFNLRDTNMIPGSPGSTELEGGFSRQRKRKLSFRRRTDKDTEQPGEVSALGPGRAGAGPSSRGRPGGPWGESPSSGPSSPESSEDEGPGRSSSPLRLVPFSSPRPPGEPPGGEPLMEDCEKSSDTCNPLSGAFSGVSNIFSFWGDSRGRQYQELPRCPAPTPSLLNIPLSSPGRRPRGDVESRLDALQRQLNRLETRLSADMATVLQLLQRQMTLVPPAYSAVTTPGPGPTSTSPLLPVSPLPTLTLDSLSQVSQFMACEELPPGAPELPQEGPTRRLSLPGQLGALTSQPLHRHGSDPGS
T2 sequence (Q13547 whole entry): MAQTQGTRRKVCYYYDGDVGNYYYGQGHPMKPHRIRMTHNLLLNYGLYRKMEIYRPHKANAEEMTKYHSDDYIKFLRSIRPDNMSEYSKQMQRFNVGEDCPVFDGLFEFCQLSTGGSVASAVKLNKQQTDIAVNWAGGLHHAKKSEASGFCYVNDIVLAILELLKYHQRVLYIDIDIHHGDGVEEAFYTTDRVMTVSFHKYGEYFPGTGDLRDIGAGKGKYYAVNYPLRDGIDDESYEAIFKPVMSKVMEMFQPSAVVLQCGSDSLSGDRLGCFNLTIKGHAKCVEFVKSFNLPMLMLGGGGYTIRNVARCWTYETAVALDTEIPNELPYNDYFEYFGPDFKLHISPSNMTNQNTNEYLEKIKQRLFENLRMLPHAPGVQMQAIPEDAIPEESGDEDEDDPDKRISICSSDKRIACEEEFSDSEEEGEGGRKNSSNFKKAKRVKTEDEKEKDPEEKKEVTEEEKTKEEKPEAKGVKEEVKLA

SMILES	IC50 (HDAC6) [nM]	IC50 (HDAC1) [nM]	inhibition at 10 µM (glioma cell line U-87MG; [8]) [%]	inhibition at 10 µM [1] [%]	inhibition at 10 µM [2, 9] [%]	inhibition at 10 µM [3, 10] [%]	inhibition at 10 µM [4, 11] [%]	protective effect against HCA-induced neuronal excitotoxicity (cell survival rate) [5]	pIC50 (hERG potassium channels)	MTD at 14 days [6] [mg/kg]	inhibition at 10 µM (glioma cell line U-87MG; 48 h) [%]	inhibition at 10 µM ([2]; HepG2, 48 h) [%]	inhibition at 10 µM ([3]; A549, 48 h) [%]	inhibition at 10 µM ([4]; MRC5, 48 h) [%]	inhibition at 10 µM [7] [%]
COc1ccc2c(c1)CCCCN2Cc1ccc(C(=O)NO)cc1 [Compound T-5, 4-((7-methoxy-2,3,4,5-tetrahydro-1H-benzo[b]azepin-1-yl)methyl)-N-hydroxybenzamide]	5.6	257	80 to 90	90 to 100	90 to 100	70 to 80	< 50	stronger than that of the HDAC6 inhibitor compound Tubastatin A	< 5.00	> 1000					
O=C(NO)c1ccc(CN2CCCOc3ccccc32)cc1 [Compound T-15, 4-((3,4-dihydrobenzo[b][1,4]oxazepin-5(2H)-yl)methyl)-N-hydroxybenzamide]	6.2	367	80 to 90	90 to 100	90 to 100	50 to 70	< 50	stronger than that of the HDAC6 inhibitor compound Tubastatin A	< 5.00	> 1000					
O=C(NO)c1ccc(CN2CCCSc3ccccc32)cc1 [Compound T-16, 4-((3,4-dihydrobenzo[b][1,4]thiazepin-5(2H)-yl)methyl)-N-hydroxybenzamide]	1.2	254						stronger than that of the HDAC6 inhibitor compound Tubastatin A	< 5.00	> 1000	90 to 100	90 to 100	70 to 80	< 50	90 to 100
O=C(NO)c1ccc(CN2CCCC(O)c3ccccc32)cc1 (stereo not shown) [Compound T-19, 4-((5-hydroxy-2,3,4,5-tetrahydro-1H-benzo[b]azepin-1-yl)methyl)-N-hydroxybenzamide]	6.4	442	90 to 100	90 to 100	90 to 100	50 to 70	< 50	stronger than that of the HDAC6 inhibitor compound Tubastatin A	< 5.00	> 1000					
COc1ccc(C2CC2)c2c1CCN(Cc1ccc(C(=O)NO)cc1)CC2 [Compound T-28, 4-((6-cyclopropyl-9-methoxy-1,2,4,5-tetrahydro-3H-benzo[d]azepin-3-yl)methyl)-N-hydroxybenzamide]	22	> 500	80 to 90	90 to 100	90 to 100	50 to 70	< 50	stronger than that of the HDAC6 inhibitor compound Tubastatin A	< 5.00	> 1000					
O=C(CCCCCCNC(=O)c1cnc(N(c2ccccc2)c2ccccc2)nc1)NO [Rocilinostat (ACY-1215), Rocilinostat, reference compound]											42.1	93.4	51.6	46.7	99.3
